# Where two headings read alike, the source gives them in different places.
# Experiments:
# Experiment in all cases: Efficacy screening assay
# Assay type in all cases: cell-based
# BXPC3 = details: BXPC3, pancreas
# Procedure: (§1) The experiment was performed by Oncolead GmbH & Co. KG (Karlsfeld , Germany), based on a standardized screening procedure . Cell lines were purchased directly from the ATCC, NCI and DSMZ cell line c ollections. Cells used for the study had undergone less than 20 passages. To ensure the absence of potential contamination and wrong assignment, all cell lines were tested using a whole genome assay (Agilent, USA). All cell lines were grown as recommended by the suppliers and with addition of 100 U/mL penicillin G and 100 µg/mL; streptomycin. Cell growth and treatments were performed in Nunclon D 96 -well plates (NUNC, Germany). The optimal seeding density for each cell line was determined to ensure exponential growth for the duration of the experiment. All cells growing without anti-cancer agents were sub-conﬂuent by the end of the treatment, as determined by visual inspection.
# (§2) After an initial 24 h pre-growth period, the compounds were added. The vehicle concentration […]
# (§3) was 0.1% DMSO. After incubation at 37°C for 72 h, the culture medium was aspirated, and the cells were precipitated by the addition of 10% trichloroacetic acid (Sigma-Aldrich, Missouri, US). After overnight incubation at 4°C, the plates were washed three times with deionized water. The precipitates were then stained with SRB (0.4% wt/v sulforhodamine B solution in 1% acetic acid, Sigma-Aldrich, Missouri, US). Afterwards, the plates were washed six times with 1% acetic acid to remove unbound stain. After drying the plates at room temperature, the bound SRB was solubilized with 10 mM Tris base and the optical density was measured at 520 nm using a Victor2 plate reader (Perkin Elmer, Germany). Blank OD values were subtracted from mean OD values for each concentration. The nonlinear curve ﬁtting and EC50 calculations were per formed using XLﬁt and algorithm “205” (ID Business […]
# (§4) one-way ANOVA and multiple comparison (Dunnett) was performed for compound treatments compared to vehicle control. The adjusted p-values with 95% confidence interval were reported as significant. For comparison of EC50 values in Figure 1F, one-way ANOVA with multiple comparison testing (Tukey) was performed. Multiplicity adjusted p -values for the EC50 with sorafenib versus resminostat for each cell line and comparison between cell lines for sorafenib are presented (95% confidence interval for significance testing). For comparison of EC50 data in Figure 2B, one-way ANOVA with multiple comparison testing (Tukey) was performed. Multiplicity adjusted p-values with 95% confidence interval was applied. For the invasion assays in Figure 4, one-way ANOVA with multiple comparison testing (Tukey) was performed. Multiplicity adjusted p-values with 95% confidence interval was applied. The adjusted p-values comparing vehicle control without vs. with platelets and compound
# A431 = details: A431, skin
# Procedure: as §1, §2, §3, §4
# BT20 = details: BT20, breast
# Procedure: as §1, §2, §3, §4
# C33A = details: Homo sapiens, C-33-A, cervix, 72 h
# Procedure: as §1, §2, §3, §4
# 786O = details: kidney
# Procedure: as §1, §2, §3, §4
# A2780 = details: A2780, ovary
# Procedure: as §1, §2, §3, §4
# CACO2 = details: CACO2, colon
# Procedure: as §1, §2, §3, §4
# A549 = details: A549, lung
# Procedure: as §1, §2, §3, §4
# CAKI1 = details: CAKI1, kidney
# Procedure: as §1, §2, §3, §4
# A204 = details: A204, muscle
# Procedure: as §1, §2, §3, §4
smiles,measurement,setting,value
"CN(C)Cc1ccc(S(=O)(=O)n2ccc(/C=C/C(=O)NO)c2)cc1 [resminostat, Resminostat]",EC50,"BXPC3; 72 h, read-out: EC50",4230 nM
same,EC50,"BXPC3; Homo sapiens, BXPC-3, 72 h, log of EC50, negative, read-out: log(EC50) (converted)",4270 nM
same,EC50,"BXPC3; Homo sapiens, BXPC-3, 72 h, read-out: EC50",4220 nM
same,EC50,"A431; 72 h, read-out: EC50",1490 nM
same,EC50,"A431; Homo sapiens, A-431, 72 h, log of EC50, negative, read-out: log(EC50) (converted)",1480 nM
same,EC50,"A431; Homo sapiens, A-431, 72 h, read-out: EC50",1490 nM
same,EC50,"BT20; 72 h, read-out: EC50",1320 nM
same,EC50,"BT20; Homo sapiens, BT-20, 72 h, log of EC50, negative, read-out: log(EC50) (converted)",1320 nM
same,EC50,"BT20; Homo sapiens, BT-20, 72 h, read-out: EC50",1320 nM
same,EC50,"C33A; log of EC50, negative, read-out: log(EC50) (converted)",1550 nM
same,EC50,C33A; read-out: EC50,1550 nM
same,EC50,"786O; Homo sapiens, 786-0, 72 h, log of EC50, negative, read-out: log(EC50) (converted)",2570 nM
same,EC50,"786O; Homo sapiens, 786-0, 72 h, read-out: EC50",2540 nM
same,EC50,"786O; 72 h, read-out: EC50",2540 nM
same,EC50,"A2780; 72 h, read-out: EC50",890 nM
same,EC50,"A2780; Homo sapiens, A2780, 72 h, log of EC50, negative, read-out: log(EC50) (converted)",891 nM
same,EC50,"A2780; Homo sapiens, A2780, 72 h, read-out: EC50",890 nM
same,EC50,"CACO2; 72 h, read-out: EC50",1780 nM
same,EC50,"CACO2; Homo sapiens, Caco-2, 72 h, log of EC50, negative, read-out: log(EC50) (converted)",1780 nM
same,EC50,"CACO2; Homo sapiens, Caco-2, 72 h, read-out: EC50",1780 nM
same,EC50,"A549; 72 h, read-out: EC50",3500 nM
same,EC50,"A549; Homo sapiens, A549, 72 h, log of EC50, negative, read-out: log(EC50) (converted)",3470 nM
same,EC50,"A549; Homo sapiens, A549, 72 h, read-out: EC50",3500 nM
same,EC50,"CAKI1; 72 h, read-out: EC50",3270 nM
same,EC50,"CAKI1; Homo sapiens, CAKI-1, 72 h, log of EC50, negative, read-out: log(EC50) (converted)",3310 nM
same,EC50,"CAKI1; Homo sapiens, CAKI-1, 72 h, read-out: EC50",3270 nM
same,EC50,"A204; 72 h, read-out: EC50",910 nM
same,EC50,"A204; Homo sapiens, A204, 72 h, log of EC50, negative, read-out: log(EC50) (converted)",912 nM
same,EC50,"A204; Homo sapiens, A204, 72 h, read-out: EC50",906 nM

# From PMC8100298, “Histone deacetylase inhibitor resminostat in combination with sorafenib counteracts platelet-mediated pro-tumoral effects in hepatocellular carcinoma” (Scientific Reports, 2021)
